Laboratory results as given in patent publication US5929056A, “Vitamin D compounds and method of preparing these compounds” (Duphar International Research B.V., priority 1994, dated 1999).

Columns and labels:
[1] = system: human leukemic cell line HL-60; assay: Cell differentiation in HL-60 assay (NBT reduction); format: cell-based; settings: for concentration of optimum differentiating effect / NBT-reduction inducing capacity relative to the known 1α,25-DHCC: HL-60 cells; for concentration of optimum differentiating effect / induction of differentiation and maturation of HL-60 cells: NBT reduction; for induction of differentiation and maturation of HL-60 cells: 10^-12 to 10^-6 M; for NBT-reduction inducing capacity relative to the known 1α,25-DHCC: FIGS. 2 and 3, potency ratio versus 1α,25-DHCC
Protocol: Vitamin D compounds according to the invention are dissolved in ethanol in concentrations ranging from 10^-12 to 10^-6 M and tested for their capacity to induce cell differentiation in a HL-60 assay. In this assay, biochemical examination of the human leukemic cell line HL-60 is done, in order to establish whether cell differentiation has taken place.
Differentiation is expressed as the maturation parameter nitroblue tetrazolium (NBT) reduction. After culturing with the known 1α,25-DHCC or with vitamin D compounds of the invention, the percentage of cells containing black formazan deposits is determined. An increase in the percentage of NBT reducing cells indicates an increase in cell differentiation.

[2] = biological target: T1, calf thymus intracellular vitamin D receptor (VDR) (Bos taurus, UniProt Q28037); assay: Affinity to intracellular vitamin D receptor (displacement of 3H-1α,25-DHCC); format: binding; settings: 10^-13 to 10^-7 M, compared with 1α,25-dihydroxycholecalciferol
T1 sequence (Q28037 1-426): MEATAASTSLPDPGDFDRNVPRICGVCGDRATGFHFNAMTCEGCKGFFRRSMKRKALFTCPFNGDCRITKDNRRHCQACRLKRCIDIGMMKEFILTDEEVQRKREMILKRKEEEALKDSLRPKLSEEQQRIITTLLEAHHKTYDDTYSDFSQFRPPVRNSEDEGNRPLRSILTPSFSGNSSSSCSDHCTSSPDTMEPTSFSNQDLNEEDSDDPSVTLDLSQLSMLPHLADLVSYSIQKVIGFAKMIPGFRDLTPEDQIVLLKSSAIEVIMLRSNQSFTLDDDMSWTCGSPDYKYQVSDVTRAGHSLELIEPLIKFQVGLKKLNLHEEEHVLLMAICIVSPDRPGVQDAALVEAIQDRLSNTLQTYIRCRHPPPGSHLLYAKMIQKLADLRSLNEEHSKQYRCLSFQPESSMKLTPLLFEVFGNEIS
Description: Affinity to intracellular vitamin D receptor.
In this assay, ^3 H-1α,25-dihydroxycholecalciferol (^3 H-1α,25-DHCC), which is specifically bound to the VDR, is replaced by the tested compounds. […] A high VDR-affinity is indicative for a biologically active substance. The tested compounds 21 and 28 have moderate VDR-affinities, whereas tested compound 36 has a weak VDR-affinity.

[3] = biological target: T2, human vitamin D binding protein (DBP) (Homo sapiens, UniProt P02774); assay: Affinity to vitamin D binding protein (competition with 3H-1α,25-DHCC); settings: DBP purified from total human serum; 10^-11 to 2.5×10^-6 M; compared to 1α,25-DHCC; FIG. 1
T2 construct: pooled Gc allotypes not specified
T2 sequence (P02774 17-474): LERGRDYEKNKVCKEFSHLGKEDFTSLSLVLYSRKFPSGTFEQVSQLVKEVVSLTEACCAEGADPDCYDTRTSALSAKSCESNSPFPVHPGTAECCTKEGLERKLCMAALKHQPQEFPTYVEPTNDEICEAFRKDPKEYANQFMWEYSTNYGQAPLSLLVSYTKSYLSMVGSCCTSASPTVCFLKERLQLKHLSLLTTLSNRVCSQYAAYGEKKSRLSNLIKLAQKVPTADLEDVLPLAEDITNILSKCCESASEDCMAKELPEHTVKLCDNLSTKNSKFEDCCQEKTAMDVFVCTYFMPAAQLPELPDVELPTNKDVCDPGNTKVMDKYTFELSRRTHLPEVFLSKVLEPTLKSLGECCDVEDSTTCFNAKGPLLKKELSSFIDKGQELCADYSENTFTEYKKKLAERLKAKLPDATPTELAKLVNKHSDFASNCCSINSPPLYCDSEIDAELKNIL
Description: Affinity to vitamin D binding protein.
Vitamin D binding protein (DBP) is the specific carrier for vitamin D and its metabolites in blood. The biological activity of vitamin D compounds depends on their binding to DBP, because strong binding to DBP will reduce the intracellular access to the VDR. Binding to the DBP may also influence the half-life of the vitamin D derivatives in circulation. Weak binders are rapidly metabolized, which is a favourable aspect in topical application.
In the assay, DBP is incubated with ^3 H-1α,25-DHCC and 1α,25-DHCC or with several vitamin D compounds according to the invention. To this purpose, the vitamin compounds are dissolved in ethanol in concentrations ranging from 10^-11 to 2.5×10^-6 M. The percentage bound/unbound ^3 H-1α,25-DHCC is then calculated. DBP is purified from total human serum. The results are shown in the appended FIG. 1. […] [^3 H]1α,25(OH)2 D3 =^3 H-1α,25-DHCC; in the Figure .cndot.=1α,25-DHCC (known compound); .quadrature.=compound 21; Δ=compound 28; o=compound 32 and .diamond.=compound 36.

Row | Structure (SMILES) | concentration of optimum differentiating effect [1] | induction of differentiation and maturation of HL-60 cells [1] | NBT-reduction inducing capacity relative to the known 1α,25-DHCC [1] | VDR-affinity [2] | binding to the DBP [3]
1 | C=C1/C(=C\C=C2/CCC[C@]3(C)[C@@H]([C@H](C)CCCC(C)(C)O)CC[C@@H]23)C[C@@H](O)C[C@@H]1O [1α,25-DHCC, 1α,25-dihydroxycholecalciferol, reference compound] | 10^-8 to 10^-7 M | induce differentiation and maturation | – | – | –
2 | C=C1/C(=C\C=C2/CCC[C@]3(C)/C(=C\CCCC(C)(C)O)CC[C@@H]23)C[C@@H](O)C[C@@H]1O [compound 21] | 10^-8 to 10^-7 M | induce differentiation and maturation | 3-5 times | moderate | rather weakly
3 | C=C1/C(=C\C=C2/CCC[C@]3(C)/C(=C/CCCC(C)(C)O)CC[C@@H]23)C[C@@H](O)C[C@@H]1O [compound 28] | 10^-8 to 10^-7 M | induce differentiation and maturation | as potent as the known 1α,25-DHCC | moderate | rather weakly
4 | C=C1/C(=C\C=C2/CCC[C@@]3(C)[C@H]2CC[C@@]32C[C@@H]2CCCC(C)(C)O)C[C@@H](O)C[C@@H]1O [compound 32] | 10^-8 to 10^-7 M | induce differentiation and maturation | 3-5 times | high | rather weakly
5 | C=C1/C(=C\C=C2/CCC[C@@]3(C)[C@H]2CC[C@@]32C[C@H]2CCCC(C)(C)O)C[C@@H](O)C[C@@H]1O [compound 36] | 10^-8 to 10^-7 M | induce differentiation and maturation | about 10 times | weak | rather weakly
